Experimental data published in patent publication EP1801117A1, “Means and methods for regulating amino acid pools and/or transport” (Friesland Brands B.V., priority 2005, dated 2007).

Target: L. lactis MG1363 BcaP (CtrA), branched-chain amino acid permease (Lactococcus lactis subsp. cremoris, UniProt A2RHI9)
Assay: Competition experiment: inhibition of L-[14C]isoleucine uptake by unlabeled L-amino acids in whole cells overproducing BcaP
Assay type: cell-based
Conditions: 10-fold excess of unlabeled L-amino acid; 250 µM unlabeled L-isoleucine (control); lactococcal cells overproducing BcaP; uptake after 1 min at 30°C; means of three measurements
Description: Amino acid transport assays. L. lactis MG1363 (pNGbcaP; pNZ9530), L. lactis MG1363 or L. lactis MGbcaP, the latter two harboring plasmids pNG8048 and pNZ9530, were grown at 30°C in 50 ml of ½GM17. At an OD600 of approximately 0.4, 1000^-1 volume of supernatant of the nisin-producing strain L. lactis NZ9700 (Kuipers et al, 1993) was added to the cultures to induce BcaP production. At an OD600 of approximately 1.0, cells were harvested by centrifugation at 6300 g and 4°C. Cell pellets were washed with 25 ml of ice-cold CDM, concentrated to an OD600 of 10.0 in CDM lacking amino acids and stored on ice until use. Cells were energized prior to transport assays by 5 min of incubation at 30°C in the presence of 0.5% glucose. Subsequently, 100 µl of cell suspension were mixed with 100 µL of CDM containing 40 µM of the unlabeled amino acid of interest and a final concentration of 1 µM of the same amino acid in a ^14C- or ^35S-labeled form (Amersham Biosciences). For competition experiments, a 10-fold excess of unlabeled amino acid was added. Mixtures were incubated at 30°C for various time intervals while stirring. The reactions were stopped by the addition of 2 ml of ice-cold 0.1 M LiCl, followed by filtration through 0.45 µm pore-size nitrocellulose filters (Schleicher & Schuell, GmbH, Dassel, Germany). Reaction tubes and filters were washed with another 2 mL of ice-cold 0.1 M LiCl. Subsequently, the filters were transferred to vials containing 2 ml of scintillation fluid (Packard BioScience, Groningen, the Netherlands) and radioactivity was determined using a Packard TriCarb 2000 CA liquid scintillation analyzer (Packard Instruments, Meriden, CT).

L. lactis MG1363 BcaP (CtrA), branched-chain amino acid permease, sequence (A2RHI9 whole entry): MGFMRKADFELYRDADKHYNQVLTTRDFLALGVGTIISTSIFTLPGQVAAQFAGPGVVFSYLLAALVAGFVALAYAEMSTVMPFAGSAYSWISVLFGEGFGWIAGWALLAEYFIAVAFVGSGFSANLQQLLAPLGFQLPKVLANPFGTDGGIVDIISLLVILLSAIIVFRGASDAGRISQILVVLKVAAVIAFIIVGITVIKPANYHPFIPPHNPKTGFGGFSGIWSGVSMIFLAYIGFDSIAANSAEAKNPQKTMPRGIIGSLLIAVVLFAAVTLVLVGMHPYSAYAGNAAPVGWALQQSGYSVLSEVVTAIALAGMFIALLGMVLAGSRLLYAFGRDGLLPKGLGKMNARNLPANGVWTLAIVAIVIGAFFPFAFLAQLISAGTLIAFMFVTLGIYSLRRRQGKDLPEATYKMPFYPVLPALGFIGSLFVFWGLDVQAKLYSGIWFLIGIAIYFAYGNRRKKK

`CC[C@H](C)[C@H](N)C(=O)O` [isoleucine] was tested. Which “inhibition of isoleucine transport by BcaP (reduction of L-[14C]isoleucine uptake)” value did it give?
The value was “about 80%”.

Which “inhibition of isoleucine transport by BcaP (reduction of L-[14C]isoleucine uptake)” value does the source give for `CC(C)C[C@H](N)C(=O)O` [leucine] here?
Its value is “about 80%”.

`CSCC[C@H](N)C(=O)O` [methionine] was tested. Which “inhibition of isoleucine transport by BcaP (reduction of L-[14C]isoleucine uptake)” value did it give?
The value was 23%.

Which “inhibition of isoleucine transport by BcaP (reduction of L-[14C]isoleucine uptake)” value does the source give for `CC(C)[C@H](N)C(=O)O` [valine] here?
The value was 64%.
